{"source": "patent US8288541B2", "about": "“Piperazine amide derivatives” (Hoffmann-La Roche Inc., priority 2007, dated 2012)", "key": {"[1]": {"molecular_target": "T1, LXR alpha (Homo sapiens, UniProt Q13133)", "T1 construct": "human LXR alpha (aa 164 to 447); unnamed tag ('tagged versions'); made in house; host or cells: E. coli BL21 (pLysS)", "T1 sequence (Q13133 164-447)": "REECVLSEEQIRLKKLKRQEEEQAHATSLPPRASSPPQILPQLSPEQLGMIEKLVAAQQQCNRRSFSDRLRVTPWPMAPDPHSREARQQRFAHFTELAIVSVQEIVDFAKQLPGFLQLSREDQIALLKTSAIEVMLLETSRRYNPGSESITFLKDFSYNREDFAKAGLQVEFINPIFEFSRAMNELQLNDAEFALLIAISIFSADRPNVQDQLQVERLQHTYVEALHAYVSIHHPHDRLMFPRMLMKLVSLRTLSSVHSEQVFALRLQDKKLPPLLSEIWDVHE", "experiment": "Radioligand binding assay (SPA), LXR alpha LBD", "details": "LXRα-LBD, read-out: LXRalpha Binding IC50", "procedure": "(§1) The following tests were carried out in order to determine the activity of the compounds of the present invention. Background information on the performed assays can be found in: Nichols J S et al. “Development of a scintillation proximity assay for peroxisome proliferator-activated receptor gamma ligand binding domain”, Anal Biochem. 1998, 257: 112-119.\n(§2) Mammalian expression vectors were constructed to express full-length human LXR alpha and LXR beta. Bacterial expression vectors were constructed to produce tagged versions of the ligand binding domains (LBD) of human LXR alpha (aa 164 to 447) and human LXR beta (aa 155 to 460). To accomplish this, the portions of the sequences encoding the LBDs were amplified from the full-length clones by PCR and then subcloned into the plasmid vectors. Final clones were verified by DNA sequence analysis (Willy et al., Genes Dev. 1995, 9:1033-45; Song et al., Proc Natl Acad Sci USA. 1994, 91:10809-13).\n(§3) Induction, expression, and purification of LBD proteins were performed in E. coli strain BL21 (pLysS) cells by standard methods (Ref: Current Protocols in Molecular Biology, Wiley Press, edited by Ausubel et al).\n(§4) Radioligand Binding Assay\n(§5) LXR alpha and LXR beta receptor binding were assayed in buffer consisting of 50 mM HEPES, pH 7.4, 10 mM NaCl, 5 mM MgCl2. For each 96-well reaction, 500 ng of LXRα-LBD or 700 ng of LXR beta-LBD proteins were bound to 80 μg or 40 μg SPA beads respectively, in a final volume of 50 μl by shaking. The resulting slurry was incubated for 1 h at RT and centrifuged for 2 min at 1300×g. The supernatant containing unbound protein was removed, and the semi-dry pellet containing the receptor-coated beads was re-suspended in 50 μl of buffer. […] All binding assays were performed in 96-well plates and the amount of bound ligand was measured on a Packard TopCount using OptiPlates (Packard). Dose response curves were measured within a range of concentration from 10^−10 M to 10^−4 M."}, "[2]": {"molecular_target": "T2, LXR beta (Homo sapiens, UniProt P55055)", "T2 construct": "human LXR beta (aa 155 to 460); unnamed tag ('tagged versions'); made in house; host or cells: E. coli BL21 (pLysS)", "T2 sequence (P55055 155-460)": "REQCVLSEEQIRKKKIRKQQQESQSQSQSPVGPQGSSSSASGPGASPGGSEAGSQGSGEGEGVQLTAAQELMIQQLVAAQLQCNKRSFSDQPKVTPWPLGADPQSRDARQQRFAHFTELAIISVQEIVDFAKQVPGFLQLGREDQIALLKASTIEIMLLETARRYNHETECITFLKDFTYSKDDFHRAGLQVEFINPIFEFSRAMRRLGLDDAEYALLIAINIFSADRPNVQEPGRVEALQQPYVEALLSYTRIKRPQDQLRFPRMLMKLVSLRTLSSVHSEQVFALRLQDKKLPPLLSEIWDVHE", "experiment": "Radioligand binding assay (SPA), LXR beta LBD", "details": "read-out: LXRbeta Binding IC50", "procedure": "as §1, §2, §3, §4, §5"}}, "data": [{"smiles": "COc1cccc(S(=O)(=O)N2CC[C@H](c3ccccc3)[C@H](C(=O)N3CCN(c4cc(C)ccc4C)CC3)C2)c1", "note": "(relative stereo) [Example 42, Cis-[4-(2,5-Dimethyl-phenyl)-piperazin-1-yl]-[-1-(3-methoxy-benzenesulfonyl)-4-phenyl-piperidin-3-yl]-methanone]", "values": [{"measurement": "melting point", "result": 192, "unit": "°C"}]}, {"smiles": "Cc1ccc(Cl)cc1N1CCN(C(=O)[C@@H]2CN(S(C)(=O)=O)CC[C@@H]2c2ccc(F)cc2F)CC1", "note": "(single isomer, unassigned) [Example 87, [4-(5-Chloro-2-methyl-phenyl)-piperazin-1-yl]-[(3S,4S) or (3R,4R)-4-(2,4-difluoro-phenyl)-1-methanesulfonyl-piperidin-3-yl]-methanone]", "values": [{"measurement": "IC50", "setting": "[1]", "result": 15.6, "unit": "µM"}, {"measurement": "IC50", "setting": "[2]", "result": 2.8, "unit": "µM"}]}, {"smiles": "Cc1cc(F)ccc1N1CCN(S(=O)(=O)c2cccc(Cl)c2)CC1C(=O)N1CCN(c2cc(Cl)ccc2Cl)CC1", "note": "(stereo not shown) [Example 4, [4-(3-Chloro-benzenesulfonyl)-1-(4-fluoro-2-methyl-phenyl)-piperazin-2-yl]-[4-(2,5-dichloro-phenyl)-piperazin-1-yl]-methanone]", "values": [{"measurement": "IC50", "setting": "[1]", "result": 18, "unit": "µM"}, {"measurement": "IC50", "setting": "[2]", "result": 0.72, "unit": "µM"}]}, {"smiles": "COc1cccc(S(=O)(=O)N2CCN(c3ccccc3)C(C(=O)N3CCN(c4cc(C)ccc4C)CC3)C2)c1", "note": "(stereo not shown) [Example 8, [4-(2,5-Dimethyl-phenyl)-piperazin-1-yl]-[4-(3-methoxy-benzenesulfonyl)-1-phenyl-piperazin-2-yl]-methanone]", "values": [{"measurement": "IC50", "setting": "[1]", "result": 4.1, "unit": "µM"}, {"measurement": "IC50", "setting": "[2]", "result": 0.77, "unit": "µM"}]}]}
